# Measurements reported in US10202377B2, “3-(1H-benzo[D]imidazol-2-yl)-1H-pyrazolo[3,4-C]pyridine and therapeutic uses thereof” (Samumed, LLC, priority 2014, dated 2019).
# Columns and labels:
# [1] = system: Wnt activity (Sp5-Luc reporter, SW480 colon carcinoma cells); assay: Sp5-Luc Wnt reporter gene screening assay in SW480 colon carcinoma cells; conditions: Homo sapiens
# Procedure: The screening assay for Wnt activity is described as follows.
# SW480 colon carcinoma cells were transduced with a lentiviral vector expressing luciferase with a human Sp5 promoter consisting of a sequence of eight TCF/LEF binding sites. SW480 cells stably expressing the Sp5-Luc reporter gene and a hygromycin resistance gene were selected by treatment with 150 μg/ml of hygromycin for 7 days. These stably transduced SW480 cells were expanded in cell culture and used for all further screening activities. For Sp5-Luc reporter gene assays, the cells were plated at 10,000 cells/well in 96-well plates with growth medium containing 10% fetal calf serum and incubated overnight at 37° C. and 5% CO2. […] Compound transfer from serially diluted source plates to assay plates containing the cells was accomplished using a pintool (Multimek 96, Beckman equipped with V&P Scientific FP1S50H pins) based liquid handling protocol. This protocol used a slotted pin to transfer 50 nl of compound from a source plate well to an assay plate well containing 50 μl of cells in growth medium. […] Control wells received 50 nl of DMSO treatment for normalization and calculating IC50 values. The treated cells were incubated at 37° C. and 5% CO2 for an additional forty-two hours. Following incubation, the growth medium was removed and 50 μl of BrightGlo luminescence reagent (Promega) was added to each well of the 96-well assay plates. The plates were placed on an orbital shaker for 5 min and then luminescence was quantified on the Victor3 (Perkin Elmer) plate reader.
# [2] = system: primary human fibroblasts derived from IPF patients (LL29 cells); assay: Inhibition of fibrosis (αSMA staining) in TGF-β1-treated primary human fibroblasts from IPF patients; format: cell-based; conditions: Fibroblast, 96 h, TGF-β1 20 ng/mL, 4 days
# Method in brief: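 LL29 IPF fibroblasts in F12 with 1% FBS were stimulated with TGF-β1 (20 ng/mL) and incubated 4 days at 37 °C. SYTOX-positive dead cells were excluded, and αSMA-positive cells were counted by immunostaining as % of total. Values were normalized to TGF-β1/DMSO wells on the same plate, and EC50 derived.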
# [3] = system: primary human mesenchymal stem cells (hMSCs); assay: Chondrogenesis induction in primary human mesenchymal stem cells (nodule imaging, Rhodamine B/Nile Red); format: cell-based; conditions: 6 days, dose at which the compound reached maximum chondrogenesis activity, dose range 10-2700 nM
# Procedure: The above synthesized compounds were screened using primary human mesenchymal stem cells (hMSCs) to determine their ability to induce chondrogenesis (process by which cartilage is developed).
# Human Mesenchymal Stem Cell Culture: Primary human mesenchymal stem cells (hMSCs) were purchased from Lonza (Walkersville, Md.) and expanded in Mesenchymal Stem Cell Growth Media (Lonza). Cells between passage 3 and 6 were used for the experiments.
# Compound Screening: Each compound was dissolved in DMSO as a 10 mM stock and used to prepare compound source plates. Serial dilution (1:3, 6-point dose-response curves from 2700 nM to 10 nM) and compound transfer was performed using the ECHO 550 (Labcyte, Sunnyvale, Calif.) into 96-well clear bottom assay plates (Greiner Bio-One) with appropriate DMSO backfill for a final DMSO concentration of 0.03%. hMSCs were plated at 20,000 cells/well in 250 μL/well Incomplete Chondrogenic Induction Medium (Lonza; DMEM, dexamethasone, ascorbate, insulin-transferrin-selenium [ITS supplement], gentamycin-amphotericin [GA-1000], sodium pyruvate, proline and L-glutamine). TGF-β3 (10 ng/mL) was used as a positive control for differentiation while negative control wells were treated with 75 nL DMSO for normalization and calculating EC50 values. Cells were incubated at 37° C. and 5% CO2 for 6 days. To image chondrogenic nodules, the cells were fixed using 4% formaldehyde (Electron Microscopy Sciences), and stained with 2 μg/mL Rhodamine B (Sigma-Aldrich) and 20 μM Nile Red (Sigma-Aldrich) [Johnson K., et. al, A Stem Cell-Based Approach to Cartilage Repair, Science, (2012), 336(6082), 717-721]. The nodules imaged (4 images per well at 4× magnification) by excitation at 531 nm and emission at 625 nm and quantified using the CellInsight CX5 (Thermo Scientific). Number of nodules in each well was normalized to the average of 3 DMSO treated wells on the same plate using Excel (Microsoft Inc.). The normalized averages (fold change over DMSO) of 3 replicate wells for each compound concentration were calculated. Due to solubility limitations of some of the compounds, curve fitting was incomplete leading to inaccurate EC50 determinations.
# Using TGF-β3 as a positive control, the concentration of test compounds required to induce equivalent levels of chondrogenesis is reported. In addition, the maximum activity of each compound and the respective dose that each compound reached maximum chondrogenesis activity is reported.
SMILES,IC50 [1] [nM],EC50 [2] [nM],Conc (nM) of Max. activity [3] [nM]
"CN(C)Cc1cncc(-c2cc3c(-c4nc5c(-c6cccc(F)c6)cccc5[nH]4)n[nH]c3cn2)c1 [Compound 13, 1-(5-(3-(4-(3-Fluorophenyl)-1H-benzo[d]imidazol-2-yl)-1H-pyrazolo[3,4-c]pyridin-5-yl)pyridin-3-yl)-N,N-dimethylmethanamine]",19.1,9,300
"CC(C)(C)C(=O)Nc1cncc(-c2cc3c(-c4nc5c(-c6ccc(F)cc6)cccc5[nH]4)n[nH]c3cn2)c1 [Compound 34, N-(5-(3-(4-(4-Fluorophenyl)-1H-benzo[d]imidazol-2-yl)-1H-pyrazolo[3,4-c]pyridin-5-yl)pyridin-3-yl)pivalamide]",31.2,47,2700
"Nc1cncc(-c2cc3c(-c4nc5c(-c6ccccc6F)cccc5[nH]4)n[nH]c3cn2)c1 [Compound 55, 5-(3-(4-(2-Fluorophenyl)-1H-benzo[d]imidazol-2-yl)-1H-pyrazolo[3,4-c]pyridin-5-yl)pyridin-3-amine]",19.5,9,900
"c1cncc(-c2cc3c(-c4nc5c(-c6cccnc6)cccc5[nH]4)n[nH]c3cn2)c1 [Compound 82, 5-(Pyridin-3-yl)-3-(4-(pyridin-3-yl)-1H-benzo[d]imidazol-2-yl)-1H-pyrazolo[3,4-c]pyridine]",4.5,9,30
"CN(C)Cc1cncc(-c2cc3c(-c4nc5c(N6CCCCC6)cccc5[nH]4)n[nH]c3cn2)c1 [Compound 169, N,N-dimethyl-1-(5-(3-(4-(piperidin-1-yl)-1H-benzo[d]imidazol-2-yl)-1H-pyrazolo[3,4-c]pyridin-5-yl)pyridin-3-yl)methanamine]",28.3,9,900
"Cc1cn(-c2cccc3[nH]c(-c4n[nH]c5cnc(-c6cncc(NC(=O)CC(C)C)c6)cc45)nc23)cn1 [Compound 184, 3-Methyl-N-(5-(3-(4-(4-methyl-1H-imidazol-1-yl)-1H-benzo[d]imidazol-2-yl)-1H-pyrazolo[3,4-c]pyridin-5-yl)pyridin-3-yl)butanamide]",55.1,277,30
"CN1CCN(c2cccc3[nH]c(-c4n[nH]c5cnc(-c6cncc(N)c6)cc45)nc23)CC1 [Compound 211, 5-(3-(4-(4-Methylpiperazin-1-yl)-1H-benzo[d]imidazol-2-yl)-1H-pyrazolo[3,4-c]pyridin-5-yl)pyridin-3-amine]",96.8,613,2700
"c1cncc(-c2cc3c(-c4nc5ccccc5[nH]4)n[nH]c3cn2)c1 [Compound 238, 3-(1H-Benzo[d]imidazol-2-yl)-5-(pyridin-3-yl)-1H-pyrazolo[3,4-c]pyridine]",7.7,57,100
"CC(C)C(=O)Nc1cncc(-c2cc3c(-c4nc5c(-c6ccsc6)cccc5[nH]4)n[nH]c3cn2)c1 [Compound 269, N-(5-(3-(4-(Thiophen-3-yl)-1H-benzo[d]imidazol-2-yl)-1H-pyrazolo[3,4-c]pyridin-5-yl)pyridin-3-yl)isobutyramide]",4.2,49,900
"CC(C)CC(=O)Nc1cncc(-c2cc3c(-c4nc5c(-c6ccoc6)cccc5[nH]4)n[nH]c3cn2)c1 [Compound 288, N-(5-(3-(4-(Furan-3-yl)-1H-benzo[d]imidazol-2-yl)-1H-pyrazolo[3,4-c]pyridin-5-yl)pyridin-3-yl)-3-methylbutanamide]",6.8,9,10
"CN(C)CCNc1cc(F)cc(-c2cccc3[nH]c(-c4n[nH]c5cnc(-c6cncc(CNCC7CCCC7)c6)cc45)nc23)c1 [Compound 466, N^1-(3-(2-(5-(5-(((Cyclopentylmethyl)amino)methyl)pyridin-3-yl)-1H-pyrazolo[3,4-c]pyridin-3-yl)-1H-benzo[d]imidazol-4-yl)-5-fluorophenyl)-N^2,N^2-dimethylethane-1,2-diamine]",466,308,–
"Fc1cccc(-c2cccc3[nH]c(-c4n[nH]c5cnc(C6CCNCC6)cc45)nc23)c1 [Compound 937, 3-(4-(3-Fluorophenyl)-1H-benzo[d]imidazol-2-yl)-5-(piperidin-4-yl)-1H-pyrazolo[3,4-c]pyridine]",3160,9990,–
"CN(C)CCOc1cncc(-c2cc3c(-c4nc5c(-c6cccc(F)c6)cccc5[nH]4)n[nH]c3cn2)c1 [Compound 947, 2-((5-(3-(4-(3-Fluorophenyl)-1H-benzo[d]imidazol-2-yl)-1H-pyrazolo[3,4-c]pyridin-5-yl)pyridin-3-yl)oxy)-N,N-dimethylethan-1-amine]",463,9990,–
"COc1cncc(-c2cc3c(-c4nc5c(-c6cccc(F)c6)cccc5[nH]4)n[nH]c3cn2)c1 [Compound 948, 3-(4-(3-Fluorophenyl)-1H-benzo[d]imidazol-2-yl)-5-(5-methoxypyridin-3-yl)-1H-pyrazolo[3,4-c]pyridine]",33,72,–
"Oc1cncc(-c2cc3c(-c4nc5c(-c6cccc(F)c6)cccc5[nH]4)n[nH]c3cn2)c1 [Compound 949, 5-(3-(4-(3-Fluorophenyl)-1H-benzo[d]imidazol-2-yl)-1H-pyrazolo[3,4-c]pyridin-5-yl)pyridin-3-ol]",29,9990,–
"Fc1cccc(-c2cccc3[nH]c(-c4n[nH]c5cnc(-c6ccncc6)cc45)nc23)c1 [Compound 952, 3-(4-(3-Fluorophenyl)-1H-benzo[d]imidazol-2-yl)-5-(pyridin-4-yl)-1H-pyrazolo[3,4-c]pyridine]",53,9990,–
"Fc1cccc(-c2cccc3[nH]c(-c4n[nH]c5cnc(-c6ccccn6)cc45)nc23)c1 [Compound 953, 3-(4-(3-Fluorophenyl)-1H-benzo[d]imidazol-2-yl)-5-(pyridin-2-yl)-1H-pyrazolo[3,4-c]pyridine]",250,9,–
"Fc1cccc(-c2cccc3[nH]c(-c4n[nH]c5cnc(-c6cnccn6)cc45)nc23)c1 [Compound 954, 3-(4-(3-Fluorophenyl)-1H-benzo[d]imidazol-2-yl)-5-(pyrazin-2-yl)-1H-pyrazolo[3,4-c]pyridine]",45,253,–
"CC(C)CC(=O)Nc1cncc(-c2cc3c(-c4nc5c(-c6cc(O)cc(F)c6)cccc5[nH]4)n[nH]c3cn2)c1 [Compound 1350, N-(5-(3-(4-(3-Fluoro-5-hydroxyphenyl)-1H-benzo[d]imidazol-2-yl)-1H-pyrazolo[3,4-c]pyridin-5-yl)pyridin-3-yl)-3-methylbutanamide]",> 10000,9,–
"COc1cc(F)cc(-c2cccc3[nH]c(-c4n[nH]c5cnc(-c6cncc(NC(=O)CC(C)C)c6)cc45)nc23)c1 [Compound 1394, N-(5-(3-(4-(3-Fluoro-5-methoxyphenyl)-1H-benzo[d]imidazol-2-yl)-1H-pyrazolo[3,4-c]pyridin-5-yl)pyridin-3-yl)-3-methylbutanamide]",183,21,–
